Where two headings read alike, the source gives them in different places.
Legend:
[1] = system: telomerized human diploid fibroblasts (tHDFs); assay: γ-H2AX DNA damage assay in tHDF cells with chemotherapy; format: cell-based; settings: pretreatment before carboplatin, doxorubicin, etoposide, camptothecin or paclitaxel
Experimental: Cell survival was determined by Cell TiterGlo assay per manufacturer's recommendations. For both γ-H2AX and caspase 3/7 assays, cells were plated and allowed to become adherent for 24 hours. […] For γ-H2AX, cells were harvested for analysis 8 hours after chemotherapy exposure. For the γ-H2AX assay, cells were fixed, permeabilized, and stained with anti-γ-H2AX as per the γ-H2AX Flow Kit (Millipore) and quantitated by flow cytometry. Data was analyzed using FlowJo 2.2 software developed by TreeStar, Inc. For the in vitro caspase 3/7 assay, cells were harvested 24 hours post chemotherapy treatment. Caspase 3/7 activation was measured using the Caspase-Glo® 3/7 Assay System (Promega) per manufacturer's recommendations.

[2] = Mouse pharmacokinetics (oral gavage / intravenous); format: in vivo, mice; settings: mouse
blood cell counts [3] = assay: 5FU-induced myelosuppression, repeated cycles; format: in vivo, C57Bl/6 mice; settings: 150 mg/kg oral before 5FU 150 mg/kg i.p., every 21 days for 3 cycles
Description: This was repeated every 21 days for 3 cycles. Blood samples were taken for hematology analysis on Day 10 of Cycles 1-3.

[4] = system: RB-negative SCLC cell lines (H69, H82, H209, H345, NCI417, or SHP-77); assay: EdU proliferation, RB-negative SCLC cell lines; settings: 24 hours
[5] = system: human renal proximal tubule cells; assay: Cell cycle analysis of renal proximal tubule cells with etoposide or cisplatin; format: cell-based; settings: 10-1000 nM with etoposide or cisplatin
Experimental: (§1) The ability of Cdk4/6 inhibitors to protect human renal proximal tubule cells from chemotherapy induced DNA damage was analyzed using etoposide and cisplatin. […] At the conclusion of the experiment, cells were harvested, fixed, and stained with propidium iodide (a DNA intercalator), which fluoresces strongly red (emission maximum 637 nm) when excited by 488 nm light. Samples were run on Dako Cyan flow cytometer.

[6] = system: RB-intact, Cdk4/6-dependent cell line (WM2664 or tHS68); assay: EdU proliferation, RB-intact Cdk4/6-dependent cell line; settings: 24 hours
HSPCs (bone marrow) = assay: HSPC proliferation in bone marrow by EdU incorporation after oral gavage; format: in vivo, mice
Experimental: Mice were then sacrificed at the indicated times (0, 12, 24, 36, or 48 hours following compound administration), and bone marrow was harvested (n=3 mice per time point), as previously described (Johnson et al. J. Clin. Invest. (2010) 120(7), 2528-2536). Four hours before the bone marrow was harvested, mice were treated with 100 μg of EdU by intraperitoneal injection (Invitrogen). Bone marrow mononuclear cells were harvested and immunophenotyped using previously described methods and percent EdU positive cells were then determined (Johnson et al. J. Clin. Invest. (2010) 120(7), 2528-2536). In brief, HSPCs were identified by expression of lineage markers (Lin-), Sca1 (S+), and c-Kit (K+).
Four hours before animals were sacrificed and the bone marrow was harvested, mice were treated with 100 μg of EdU by intraperitoneal injection. Three mice per group were sacrificed at 12 hours and the remaining three animals per group were sacrificed at 24 hours. Results are shown in FIG. 6A as the ratio of EdU positive cells for treated animals at 12 or 24 hour time points compared to control.
Further experiments were completed with Compound T examining dose response and longer periods of compound treatment. […] […].
Both compounds were administered at 150 mg/kg by oral gavage. One hour prior to harvesting bone marrow, EdU was IP injected to label cycling cells. Bone marrow was harvested at 12, 24, 36, and 48 hours after compound treatment and the percentage of EdU positive HSPC cells was determined at each time point.

[7] = system: human renal proximal tubule cells; assay: DNA cell cycle analysis in human renal proximal tubule cells; format: cell-based; settings: 24 hours, dose dependent
Description: as §1, with “To test the” for “The”, “induce a clean G1-arrest in non-hematopoietic cells, G1 arrest was examined in” for “protect”, “cells.” for “cells from chemotherapy induced DNA damage was analyzed using etoposide and cisplatin.”

[8] = system: Rb phosphorylation at Ser780 and Ser807/811; assay: Rb phosphorylation western blot; format: cell-based; settings: 300 nM
Experimental: The Cdk4/6-cyclin D complex is essential for progression from G1 to the S-phase of the DNA cell cycle. This complex phosphorylates the retinoblastoma tumor suppressor protein (Rb). […] Samples were lysed and protein was assayed by western blot analysis. Rb phosphorylation was measured at two sites targeted by the Cdk4/6-cyclin D complex, Ser780 and Ser807/811 using species specific antibodies.

blood cell counts [9] = assay: 5FU-induced myelosuppression, single dose; format: in vivo, FVB/n female mice; settings: 150 mg/kg oral, 30 minutes before 5FU 150 mg/kg i.p.
Experimental: Complete blood cell counts were measured every two days starting on day six.

[10] = system: human renal proximal tubule cells; assay: γ-H2AX assay in renal proximal tubule cells with cisplatin; format: cell-based; settings: 10 nM-1 uM with 25 uM cisplatin
Experimental: Normal renal proximal tubule epithelial cells were obtained from American Type Culture Collection (ATCC, Manassas, Va.). Cells were grown in an incubator at 37° C. in a humidified atmosphere of 5% CO2 in Renal Epithelial Cell Basal Media (ATCC) supplemented with Renal Epithelial Cell Growth Kit (ATCC) in 37° C. humidified incubator. […] For the γ-H2AX assay, cells were fixed, permeabilized, and stained with anti-γ-H2AX as per the γ-H2AX Flow Kit (Millipore) and quantitated by flow cytometry. Data was analyzed using FlowJo 2.2 software developed by TreeStar, Inc. Caspase 3/7 activation was measured using the Caspase-Glo 3/7 Assay System (Promega, Madison, Wis.) by following the manufacturer's instructions.

With `CN1CCN(c2ccc(Nc3ncc4cc5n(c4n3)C3(CCCCC3)CNC5=O)nc2)CC1` [Compound T] the “DNA damage as measured by γ-H2AX formation” value [1] was “attenuated DNA damage”, the F [2] was 80% and the half-life ([2]; plasma, po, 30 mg/kg, 30 mg/kg oral gavage, read-out: t1/2 p.o. (converted)) was 300 min. It also gave a half-life ([2]; plasma, po, 30 mg/kg, read-out: plasma half-life following oral administration) of 180 to 300 min, a bioavailability ([2]; plasma, po, 30 mg/kg, read-out: oral bioavailability (F (%))) of 52 to 80% and an AUC(0-inf) ([2]; plasma, iv, 10 mg/kg i.v.) of 1.3 µM·h. The clearance ([2]; plasma, iv, 10 mg/kg i.v.) was 35 mL/min/kg, the Vd ([2]; plasma, iv, 10 mg/kg i.v., read-out: Vss) was 2.7 L/kg and the AUC ([2]; plasma, 30 mg/kg oral gavage) was 2.9 µM·h. For the same molecule, the Cmax ([2]; plasma, 30 mg/kg oral gavage) was 2500 nM, the Tmax ([2]; plasma, 30 mg/kg oral gavage) was 1 h and the “myelosuppression after repeated 5FU cycles” value (blood cell counts [3]) was “reduced the myelosuppression on Day 10 of the third cycle”. The “effect on proliferation (EdU, percent of cells in S-phase)” value [4] was “does not affect the growth of the Rb-negative cell lines”, the “protection from chemotherapy induced DNA damage (cell cycle distribution)” value [5] was “protects renal proximal tubule epithelial cells from chemotherapy induced DNA damage” and the “effect on proliferation (EdU, percent of cells in S-phase)” value [6] was “inhibits the Rb-positive cell line (tHS68)”. The “EdU incorporation into HSPCs at 12 and 24 hours compared to control” value (HSPCs (bone marrow); 150 mg/kg oral gavage) was “reduction in EdU incorporation at 12 hours which was starting to return to normal at 24 hours”, the “G1-arrest of bone marrow stem cells (HSPC)” value (HSPCs (bone marrow); oral gavage, mice) was “dose dependent, transient, and reversible G1-arrest” and the “G1 cell cycle arrest” value [7] was “robust G1 cell cycle arrest”. For the same molecule, the “time post exposure by which Rb phosphorylation is blocked” value ([8]; Rb-dependent cell lines (tHS68, WM2664)) was at most 16 h, the “effect on Rb phosphorylation” value ([8]; Rb-independent cells (A2058)) was “no effect” and the “blood cell counts on day 14 after 5FU” value (blood cell counts [9]) was “significant protection of each cell type at Day 14”. For the same molecule, the “recovery of hematopoietic cell lineages after 5FU” value (blood cell counts [9]) was “more rapid recovery” and the “DNA damage as measured by γ-H2AX formation” value [10] was “attenuated DNA damage”.

Source: patent US9464092B2, “Transient protection of normal cells during chemotherapy” (G1 Therapeutics, Inc., priority 2013, dated 2016)
